Data reported in patent US9637507B2, “Process for the preparation of liquid tin(II) alkoxides” (CHIANG MAI UNIVERSITY, priority 2012, dated 2017).

Tests used:
[1] = literature solids; cited from earlier work
[2] = Storage of liquid tin(II) alkoxides under nitrogen or argon; conditions: stored under a nitrogen or argon atmosphere
[3] = Solubility test of tin(II) alkoxides in organic solvents; type: physicochemical; conditions: liquid tin(II) alkoxides; temperature range of 25-38° C.

Compound | Stability (moisture, oxygen, colour change) [1] | Storage stability (reactivity) [2] | Solubility in common organic solvents [3]
CCCC[O-].CCCC[O-].[Sn+2] [Tin(II) n-butoxide, tin(II) n-butoxide] | extremely moisture and oxygen sensitive | without any significant effect on their reactivity | –
CC[O][Sn][O]CC [Tin(II) ethoxide, reference compound] | turned yellow rapidly, even when the product was dried and kept under vacuum | – | –
tin(II) n-hexoxide | – | – | soluble in common organic solvents
tin(II) n-octoxide | – | – | soluble in common organic solvents
